Results taken from the CheMixHub viscosity set.
± gives the uncertainty stated by the source.

Experiment: xn = mol fraction of the nth substance listed
Conditions: 101 kPa

Q: Which results are given for `OCCCCO` + CS(C)=O?
A: viscosity (293.15 K, x1 = 0.0436): 2.61 ± 0.05 mPa·s; viscosity (293.15 K, x1 = 0.0879): 3 ± 0.06 mPa·s; viscosity (293.15 K, x1 = 0.1327): 3.46 ± 0.07 mPa·s; viscosity (293.15 K, x1 = 0.1781): 4.01 ± 0.08 mPa·s; viscosity (293.15 K, x1 = 0.2242): 4.66 ± 0.1 mPa·s; viscosity (293.15 K, x1 = 0.2709): 5.43 ± 0.11 mPa·s; viscosity (293.15 K, x1 = 0.3183): 6.36 ± 0.13 mPa·s; viscosity (293.15 K, x1 = 0.3663): 7.51 ± 0.16 mPa·s; viscosity (293.15 K, x1 = 0.415): 8.85 ± 0.18 mPa·s; viscosity (293.15 K, x1 = 0.4644): 10.5 ± 0.2 mPa·s; viscosity (293.15 K, x1 = 0.5145): 12.7 ± 0.3 mPa·s; viscosity (293.15 K, x1 = 0.5653): 15.4 ± 0.3 mPa·s; viscosity (293.15 K, x1 = 0.6169): 18.9 ± 0.4 mPa·s; viscosity (293.15 K, x1 = 0.6692): 23.4 ± 0.5 mPa·s; viscosity (293.15 K, x1 = 0.7223): 29.2 ± 0.6 mPa·s; viscosity (293.15 K, x1 = 0.7762): 36.7 ± 0.8 mPa·s; viscosity (293.15 K, x1 = 0.8309): 46.5 ± 1 mPa·s; viscosity (293.15 K, x1 = 0.8864): 59.2 ± 1.2 mPa·s; viscosity (293.15 K, x1 = 0.9428): 75.2 ± 1.6 mPa·s; viscosity (298.15 K, x1 = 0.0436): 2.25 ± 0.05 mPa·s; viscosity (298.15 K, x1 = 0.0879): 2.59 ± 0.05 mPa·s; viscosity (298.15 K, x1 = 0.1327): 2.97 ± 0.06 mPa·s; viscosity (298.15 K, x1 = 0.1781): 3.4 ± 0.07 mPa·s; viscosity (298.15 K, x1 = 0.2242): 3.92 ± 0.08 mPa·s; viscosity (298.15 K, x1 = 0.2709): 4.53 ± 0.09 mPa·s; viscosity (298.15 K, x1 = 0.3183): 5.27 ± 0.11 mPa·s; viscosity (298.15 K, x1 = 0.3663): 6.19 ± 0.13 mPa·s; viscosity (298.15 K, x1 = 0.415): 7.3 ± 0.15 mPa·s; viscosity (298.15 K, x1 = 0.4644): 8.6 ± 0.18 mPa·s; viscosity (298.15 K, x1 = 0.5145): 10.3 ± 0.2 mPa·s; viscosity (298.15 K, x1 = 0.5653): 12.4 ± 0.3 mPa·s; viscosity (298.15 K, x1 = 0.6169): 15 ± 0.3 mPa·s; viscosity (298.15 K, x1 = 0.6692): 18.5 ± 0.4 mPa·s; viscosity (298.15 K, x1 = 0.7223): 22.9 ± 0.5 mPa·s; viscosity (298.15 K, x1 = 0.7762): 28.4 ± 0.6 mPa·s; viscosity (298.15 K, x1 = 0.8309): 35.7 ± 0.7 mPa·s; viscosity (298.15 K, x1 = 0.8864): 44.8 ± 0.9 mPa·s; viscosity (298.15 K, x1 = 0.9428): 56.4 ± 1.1 mPa·s; viscosity (303.15 K, x1 = 0.0436): 2.06 ± 0.04 mPa·s; viscosity (303.15 K, x1 = 0.0879): 2.35 ± 0.05 mPa·s; viscosity (303.15 K, x1 = 0.1327): 2.68 ± 0.06 mPa·s; viscosity (303.15 K, x1 = 0.1781): 3.06 ± 0.06 mPa·s; viscosity (303.15 K, x1 = 0.2242): 3.51 ± 0.07 mPa·s; viscosity (303.15 K, x1 = 0.2709): 4.05 ± 0.08 mPa·s; viscosity (303.15 K, x1 = 0.3183): 4.7 ± 0.1 mPa·s; viscosity (303.15 K, x1 = 0.3663): 5.47 ± 0.11 mPa·s; viscosity (303.15 K, x1 = 0.415): 6.4 ± 0.13 mPa·s; viscosity (303.15 K, x1 = 0.4644): 7.5 ± 0.15 mPa·s; viscosity (303.15 K, x1 = 0.5145): 8.9 ± 0.18 mPa·s; viscosity (303.15 K, x1 = 0.5653): 10.6 ± 0.2 mPa·s; viscosity (303.15 K, x1 = 0.6169): 12.8 ± 0.3 mPa·s; viscosity (303.15 K, x1 = 0.6692): 15.6 ± 0.3 mPa·s; viscosity (303.15 K, x1 = 0.7223): 19.1 ± 0.4 mPa·s; viscosity (303.15 K, x1 = 0.7762): 23.5 ± 0.5 mPa·s; viscosity (303.15 K, x1 = 0.8309): 29.3 ± 0.6 mPa·s; viscosity (303.15 K, x1 = 0.8864): 36.4 ± 0.7 mPa·s; viscosity (303.15 K, x1 = 0.9428): 45.4 ± 0.9 mPa·s; viscosity (308.15 K, x1 = 0.0436): 1.81 ± 0.04 mPa·s; viscosity (308.15 K, x1 = 0.0879): 2.06 ± 0.04 mPa·s; viscosity (308.15 K, x1 = 0.1327): 2.34 ± 0.05 mPa·s; viscosity (308.15 K, x1 = 0.1781): 2.66 ± 0.06 mPa·s; viscosity (308.15 K, x1 = 0.2242): 3.05 ± 0.06 mPa·s; viscosity (308.15 K, x1 = 0.2709): 3.49 ± 0.07 mPa·s; viscosity (308.15 K, x1 = 0.3183): 4 ± 0.08 mPa·s; viscosity (308.15 K, x1 = 0.3663): 4.63 ± 0.1 mPa·s; viscosity (308.15 K, x1 = 0.415): 5.38 ± 0.11 mPa·s; viscosity (308.15 K, x1 = 0.4644): 6.3 ± 0.13 mPa·s; viscosity (308.15 K, x1 = 0.5145): 7.4 ± 0.15 mPa·s; viscosity (308.15 K, x1 = 0.5653): 8.8 ± 0.18 mPa·s; viscosity (308.15 K, x1 = 0.6169): 10.5 ± 0.2 mPa·s; viscosity (308.15 K, x1 = 0.6692): 12.7 ± 0.3 mPa·s; viscosity (308.15 K, x1 = 0.7223): 15.4 ± 0.3 mPa·s; viscosity (308.15 K, x1 = 0.7762): 18.9 ± 0.4 mPa·s; viscosity (308.15 K, x1 = 0.8309): 23.2 ± 0.5 mPa·s; viscosity (308.15 K, x1 = 0.8864): 28.6 ± 0.6 mPa·s; viscosity (308.15 K, x1 = 0.9428): 35.5 ± 0.7 mPa·s; viscosity (313.15 K, x1 = 0.0436): 1.67 ± 0.04 mPa·s; viscosity (313.15 K, x1 = 0.0879): 1.89 ± 0.04 mPa·s; viscosity (313.15 K, x1 = 0.1327): 2.13 ± 0.04 mPa·s; viscosity (313.15 K, x1 = 0.1781): 2.41 ± 0.05 mPa·s; viscosity (313.15 K, x1 = 0.2242): 2.73 ± 0.06 mPa·s; viscosity (313.15 K, x1 = 0.2709): 3.13 ± 0.07 mPa·s; viscosity (313.15 K, x1 = 0.3183): 3.55 ± 0.07 mPa·s; viscosity (313.15 K, x1 = 0.3663): 4.08 ± 0.08 mPa·s; viscosity (313.15 K, x1 = 0.415): 4.7 ± 0.1 mPa·s; viscosity (313.15 K, x1 = 0.4644): 5.47 ± 0.11 mPa·s; viscosity (313.15 K, x1 = 0.5145): 6.4 ± 0.13 mPa·s; viscosity (313.15 K, x1 = 0.5653): 7.5 ± 0.15 mPa·s; viscosity (313.15 K, x1 = 0.6169): 8.9 ± 0.18 mPa·s; viscosity (313.15 K, x1 = 0.6692): 10.7 ± 0.2 mPa·s; viscosity (313.15 K, x1 = 0.7223): 12.9 ± 0.3 mPa·s; viscosity (313.15 K, x1 = 0.7762): 15.6 ± 0.3 mPa·s; viscosity (313.15 K, x1 = 0.8309): 19 ± 0.4 mPa·s; viscosity (313.15 K, x1 = 0.8864): 23.3 ± 0.5 mPa·s; viscosity (313.15 K, x1 = 0.9428): 28.7 ± 0.6 mPa·s; viscosity (318.15 K, x1 = 0.0436): 1.55 ± 0.03 mPa·s; viscosity (318.15 K, x1 = 0.0879): 1.74 ± 0.04 mPa·s; viscosity (318.15 K, x1 = 0.1327): 1.96 ± 0.04 mPa·s; viscosity (318.15 K, x1 = 0.1781): 2.21 ± 0.05 mPa·s; viscosity (318.15 K, x1 = 0.2242): 2.53 ± 0.05 mPa·s
